Reference: the supplement of paper PMC10307832

Experiments:
Test in all cases: relative viability (nuclei count vs DMSO), 5 days (fraction); higher = more cells survive
[1] = compound: CCN(CCO)CCCC(C)Nc1ccnc2cc(Cl)ccc12 [Hydroxychloroquine]
How it was run: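 In 1536-well plates, lung cancer cell lines rested overnight at 37 °C before five library-drug doses (not always all listed), √10 apart, were pinned onto vehicle-anchored plates. Nuclei were counted with MetaXpress from 4× Hoechst images taken after 5 days without medium change. Viability compares treated-well with vehicle-well nuclei as a median over plates, and plates needed control CV below 25% plus at least one doubling to pass.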

[2] = compound: CCN(CCO)CCCC(C)Nc1ccnc2cc(Cl)ccc12 [Hydroxychloroquine] + CC1(C)CCC(c2ccc(Cl)cc2)=C(CN2CCN(c3ccc(C(=O)NS(=O)(=O)c4ccc(N[C@H](CCN5CCOCC5)CSc5ccccc5)c(S(=O)(=O)C(F)(F)F)c4)cc3)CC2)C1 [Navitoclax] (partner 0.5 µM)
How it was run: (§1)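 Relative viability equals treated-well nuclei counts divided by vehicle-well nuclei counts. Counts came from 4× images of lung cancer cell lines grown in 1536-well plates for 5 days after pin-tool dosing on the day after seeding. Dosing used one drug alone or a fixed anchor-drug dose plus five library-drug doses (not always all listed) in √10 steps, and values are medians of duplicate plates.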

[3] = compound: CCN(CCO)CCCC(C)Nc1ccnc2cc(Cl)ccc12 [Hydroxychloroquine] + Cc1cc(Nc2cc(N3CCN(C)CC3)nc(Sc3ccc(NC(=O)C4CC4)cc3)n2)n[nH]1 [Tozasertib] (partner 0.1 µM)
How it was run: as §1

[4] = compound: CCN(CCO)CCCC(C)Nc1ccnc2cc(Cl)ccc12 [Hydroxychloroquine] + N=C(N)NC(=N)NCCc1ccccc1 [Phenformin] (partner 250 µM)
How it was run: as §1

| Cell Line | relative viability ([1]; 0.5 µM) | relative viability ([1]; 1.581 µM) | relative viability ([1]; 5 µM) | relative viability ([1]; 15.81 µM) | relative viability ([1]; 50 µM) | relative viability ([2]; first compound 0.5 µM) | relative viability ([2]; first compound 1.581 µM) | relative viability ([2]; first compound 5 µM) | relative viability ([2]; first compound 15.81 µM) | relative viability ([2]; first compound 50 µM) | relative viability ([3]; first compound 0.5 µM) | relative viability ([3]; first compound 1.581 µM) | relative viability ([3]; first compound 5 µM) | relative viability ([3]; first compound 15.81 µM) | relative viability ([3]; first compound 50 µM) | relative viability ([4]; first compound 0.5 µM) | relative viability ([4]; first compound 1.581 µM) | relative viability ([4]; first compound 5 µM) | relative viability ([4]; first compound 15.81 µM) | relative viability ([4]; first compound 50 µM) |
| --- | --- | --- | --- | --- | --- | --- | --- | --- | --- | --- | --- | --- | --- | --- | --- | --- | --- | --- | --- | --- |
| NCI-H1650 | 0.956 | 1.08 | 0.857 | 0.806 | 0.903 | 1.06 | 1.06 | 1.24 | 1.04 | 1.29 | 0.466 | 0.318 | 0.483 | 0.419 | 0.346 | 0.473 | 0.507 | 0.404 | 0.402 | 0.303 |
| NCI-H1651 | 0.974 | 0.981 | 1 | 1.01 | 1.1 | 0.927 | 1.05 | 1.12 | 1.07 | 1.01 | 0.845 | 0.62 | 0.762 | 0.65 | 0.714 | 0.358 | 0.346 | 0.297 | 0.356 | 0.325 |
| NCI-H1666 | 0.986 | 0.944 | 1.01 | 0.966 | 0.952 | 0.921 | 0.951 | 0.986 | 0.827 | 0.918 | 0.612 | 0.557 | 0.658 | 0.636 | 0.552 | 0.601 | 0.551 | 0.586 | 0.562 | 0.554 |
| NCI-H1734 | 0.918 | 0.869 | 0.989 | 0.942 | 1.02 | 0.913 | 0.812 | 0.86 | 0.988 | 0.948 | 0.276 | 0.297 | 0.274 | 0.245 | 0.31 | 0.361 | 0.42 | 0.361 | 0.358 | 0.405 |
| NCI-H1755 | 1.05 | 0.899 | 0.928 | 0.99 | 0.941 | 1.03 | 0.905 | 0.933 | 0.972 | 0.926 | 0.672 | 0.548 | 0.569 | 0.656 | 0.587 | 0.628 | 0.529 | 0.63 | 0.636 | 0.572 |
| NCI-H1793 | 1.03 | 0.791 | 0.916 | 0.866 | 0.998 | 0.331 | 0.32 | 0.404 | 0.389 | 0.547 | 0.521 | 0.266 | 0.268 | 0.366 | 0.308 | 0.38 | 0.325 | 0.364 | 0.351 | 0.36 |
| NCI-H1915 | 0.961 | 1.01 | 0.981 | 1.01 | 1.06 | 0.783 | 0.773 | 0.84 | 0.831 | 0.76 | 0.425 | 0.411 | 0.428 | 0.464 | 0.439 | 0.347 | 0.36 | 0.361 | 0.383 | 0.369 |
| NCI-H1944 | 0.983 | 0.966 | 0.925 | 0.919 | 0.994 | 0.958 | 0.955 | 1.06 | 0.951 | 1.01 | 0.254 | 0.249 | 0.232 | 0.264 | 0.271 | 0.196 | 0.17 | 0.193 | 0.195 | 0.204 |
| NCI-H1975 | 0.973 | 0.977 | 0.91 | 1 | 1.06 | 1.08 | 1.05 | 1.15 | 1.03 | 1.22 | 0.84 | 0.695 | 0.856 | 0.858 | 0.847 | 0.41 | 0.37 | 0.378 | 0.408 | 0.396 |
| NCI-H1993 | 0.974 | 0.842 | 0.939 | 0.883 | 1.02 | 0.931 | 0.779 | 0.879 | 1.03 | 0.893 | 0.514 | 0.648 | 0.571 | 0.569 | 0.592 | 0.514 | 0.55 | 0.475 | 0.51 | 0.476 |
| NCI-H2009 | 0.979 | 1.04 | 1.06 | 0.994 | 1.07 | 1.16 | 1.22 | 1.21 | 1.13 | 1.25 | 0.819 | 0.745 | 0.784 | 0.739 | 0.726 | 0.502 | 0.475 | 0.491 | 0.486 | 0.469 |
| NCI-H2023 | 1 | 1.03 | 0.941 | 0.981 | 1.13 | 1.09 | 0.985 | 1.03 | 0.974 | 1.03 | 0.35 | 0.339 | 0.344 | 0.36 | 0.36 | 0.423 | 0.433 | 0.436 | 0.4 | 0.386 |
| NCI-H2085 | 1 | 0.859 | 0.964 | 0.977 | 0.989 | 1.03 | 1.04 | 1.25 | 1.03 | 1.2 | 0.858 | 0.828 | 0.799 | 0.813 | 0.884 | 0.762 | 0.509 | 0.688 | 0.727 | 0.692 |
| NCI-H2087 | 0.971 | 0.923 | 1 | 1.06 | 0.98 | 0.972 | 0.938 | 1.04 | 1.16 | 1.04 | 0.265 | 0.22 | 0.317 | 0.261 | 0.284 | 0.445 | 0.383 | 0.486 | 0.566 | 0.464 |
| NCI-H2126 | 1.02 | 0.967 | 0.974 | 0.992 | 1.06 | 0.859 | 0.804 | 0.848 | 0.884 | 0.833 | 0.821 | 0.77 | 0.836 | 0.887 | 0.949 | 0.528 | 0.534 | 0.56 | 0.521 | 0.506 |
| NCI-H2170 | 0.969 | 1.15 | 0.992 | 0.995 | 1.15 | 0.54 | 0.695 | 0.631 | 0.644 | 0.549 | 0.721 | 0.751 | 0.67 | 0.813 | 0.728 | 0.427 | 0.413 | 0.435 | 0.427 | 0.417 |
| NCI-H2228 | 1.05 | 0.959 | 0.945 | 1.11 | 1.08 | 0.671 | 0.717 | 1.04 | 0.78 | 1.16 | 0.281 | 0.201 | 0.285 | 0.259 | 0.321 | 0.265 | 0.342 | 0.348 | 0.407 | 0.292 |
| NCI-H2347 | 1.1 | 0.935 | 1.04 | 0.965 | 1.03 | 0.784 | 0.81 | 0.689 | 0.851 | 0.702 | 0.553 | 0.455 | 0.664 | 0.402 | 0.469 | 0.469 | 0.466 | 0.446 | 0.329 | 0.377 |
| NCI-H2405 | 1.03 | 0.955 | 0.968 | 1 | 1.01 | 1.03 | 0.753 | 0.857 | 0.914 | 0.8 | 0.769 | 0.691 | 0.756 | 0.707 | 0.728 | 0.417 | 0.352 | 0.368 | 0.384 | 0.398 |
| NCI-H3122 | 0.999 | 0.997 | 0.99 | 1.05 | 1.06 | 1.03 | 0.994 | 1.01 | 1.04 | 1.03 | 0.434 | 0.368 | 0.397 | 0.456 | 0.505 | 0.379 | 0.364 | 0.373 | 0.358 | 0.344 |
| PC-3 [JPC-3] | 1.01 | 1.08 | 0.957 | 1.06 | 1.02 | 0.851 | 0.776 | 0.83 | 0.67 | 0.85 | 0.859 | 0.959 | 0.973 | 0.948 | 0.901 | 0.448 | 0.457 | 0.448 | 0.432 | 0.507 |
| PC-14 | 1.03 | 0.961 | 0.956 | 1.05 | 1.01 | 1.03 | 1.07 | 0.979 | 1.01 | 0.962 | 0.58 | 0.537 | 0.54 | 0.544 | 0.55 | 0.676 | 0.573 | 0.551 | 0.595 | 0.601 |
| RERF-LC-KJ | 0.937 | 0.978 | 0.99 | 0.939 | 1.05 | 0.894 | 0.983 | 0.93 | 0.934 | 0.749 | 0.452 | 0.523 | 0.541 | 0.487 | 0.478 | 0.4 | 0.402 | 0.406 | 0.402 | 0.408 |
| SK-LU-1 | 1.19 | 0.983 | 0.949 | 1.03 | 1.08 | 0.747 | 0.96 | 0.851 | 1.21 | 0.658 | 0.367 | 0.339 | 0.325 | 0.342 | 0.323 | 0.505 | 0.528 | 0.544 | 0.538 | 0.429 |
| SK-MES-1 | 1.06 | 0.959 | 1.07 | 1.05 | 0.995 | 1.45 | 1.21 | 1.25 | 1.27 | 1.17 | 1.06 | 0.943 | 1.02 | 1.02 | 0.94 | 0.668 | 0.741 | 0.723 | 0.693 | 0.635 |
| SW 1573 | 0.918 | 0.832 | 0.983 | 1.07 | 1.02 | 0.971 | 0.884 | 1.01 | 1.03 | 0.972 | 0.217 | 0.203 | 0.167 | 0.188 | 0.147 | 0.356 | 0.333 | 0.402 | 0.402 | 0.368 |
| UMC-11 | 0.988 | 0.849 | 1.01 | 1.05 | 1.12 | 0.307 | 0.288 | 0.299 | 0.322 | 0.327 | 0.191 | 0.188 | 0.217 | 0.393 | 0.196 |  | 0.305 | 0.308 | 0.315 | 0.335 |
